Test results as given in patent US8759365B2, “Organic compounds” (Novartis AG, priority 2007, dated 2014).

Molecular target: rhCETP (Homo sapiens (Human), UniProt P11597)
Assay: CETP in vitro assay (CETP Activity Kit, fluorescence, rhCETP)
Format: biochemical
Settings: CETP inhibition; Table 1 does not name the assay; read-out: IC50 (nM), Inhibitory Activity of Compounds
Experimental: CETP Activity Kit (#RB-RPAK) was purchased from Roar Biochemical, Inc. (New York, N.Y., USA). To each well of a 96-well NBS half-area plate (costar #3686), […] of the donor solution, 1 μL of the acceptor solution and 5 μL compound solution diluted in 100% DMSO were added in a 38 μL of buffer containing 10 mM Tris, 150 mM NaCl and 2 mM EDTA, pH 7.4. Then, the plate was sealed with Themowell™ Sealers (costar #6524) and followed by a mixing on a plate shaker by MICROPLATE MIXER MPX-96 (IWAKI) at power 3 for 10 sec at room temperature. After 10-min incubation at 37° C., the reaction was started by adding 5 μL of rhCETP solution (Cardiovascular Target, New York, N.Y., USA) and mixed on the plate shaker for 10 sec, then the fluorescence intensity at 0 min was measured by a ARVO SX (Perkin Elmerr, USA) at excitation wavelength of 465 nm and emission wavelength of 535 nm. After 120 min-incubation at 37° C., fluorescence intensity was measured again. The inhibition of rhCETP activity by a compound was calculated by the following calculation. Inhibition %={1−(F120−F0)/(f120−f0)}×100 F: measured fluorescence intensity with compound at 0 or 120 min. f: measured fluorescence intensity of without compound at 0 or 120 min.
The IC50 values are determined from the dose-effect curve by Origin software. IC50 values, especially from about 0.1 nM to about 50 μM, are determined for the compounds of the present invention or a pharmaceutically acceptable salt thereof.

Chain of rhCETP (P11597 18-493): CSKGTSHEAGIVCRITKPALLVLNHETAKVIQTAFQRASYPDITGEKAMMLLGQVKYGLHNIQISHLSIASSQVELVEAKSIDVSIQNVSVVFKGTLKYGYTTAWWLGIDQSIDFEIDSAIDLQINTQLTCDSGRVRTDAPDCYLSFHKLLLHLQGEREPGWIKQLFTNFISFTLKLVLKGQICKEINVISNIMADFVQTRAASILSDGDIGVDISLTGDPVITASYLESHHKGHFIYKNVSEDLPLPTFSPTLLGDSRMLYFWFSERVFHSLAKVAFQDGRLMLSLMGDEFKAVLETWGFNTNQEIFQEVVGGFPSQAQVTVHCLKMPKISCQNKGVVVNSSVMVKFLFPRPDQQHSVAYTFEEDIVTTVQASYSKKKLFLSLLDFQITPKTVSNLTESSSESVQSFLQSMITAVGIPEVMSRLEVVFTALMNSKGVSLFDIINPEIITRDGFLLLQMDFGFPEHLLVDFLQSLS

Compound `CC[C@@H]1C[C@H](N(Cc2cc(C(F)(F)F)cc(C(F)(F)F)c2)c2ncc(-c3cnn(C)c3)cn2)CN1C(=O)C1CCCCC1` [Example 5-3, ((2R,4S)-4-{(3,5-Bis-trifluoromethyl-benzyl)-[5-(1-methyl-1H-pyrazol-4-yl)-pyrimidin-2-yl]-amino}-2-ethyl-pyrrolidin-1-yl)-cyclohexyl-methanone] has an IC50 of 92 nM.

For `CC[C@@H]1C[C@H](N(Cc2cc(C(F)(F)F)cc(C(F)(F)F)c2)c2ncc(-c3cnn(C)c3)cn2)CN1C(=O)OCC(C)C` [Example 6-1, (2R,4S)-4-{(3,5-Bis-trifluoromethyl-benzyl)-[5-(1-methyl-1H-pyrazol-4-yl)-pyrimidin-2-yl]-amino}-2-ethyl-pyrrolidine-1-carboxylic acid isobutyl ester], the IC50 was 69 nM.

`CC[C@@H]1C[C@H](N(Cc2cc(C(F)(F)F)cc(C(F)(F)F)c2)c2ncc(-c3cnn(C)c3)cn2)CN1C(=O)OCC(C)(C)C` [Example 6-2, (2R,4S)-4-{(3,5-Bis-trifluoromethyl-benzyl)-[5-(1-methyl-1H-pyrazol-4-yl)-pyrimidin-2-yl]-amino}-2-ethyl-pyrrolidine-1-carboxylic acid 2,2-dimethyl-propyl ester] was tested, and the IC50 was 47 nM.

Compound `CC[C@@H]1C[C@H](N(Cc2cc(C(F)(F)F)cc(C(F)(F)F)c2)c2ncc(-c3cnn(C)c3)cn2)CN1C(=O)OC1CCOCC1` [Example 7-4, (2R,4S)-4-{(3,5-Bis-trifluoromethyl-benzyl)-[5-(1-methyl-1H-pyrazol-4-yl)-pyrimidin-2-yl]-amino}-2-ethyl-pyrrolidine-1-carboxylic acid tetrahydro-pyran-4-yl ester] has an IC50 of 60 nM.

Compound `CC[C@@H]1C[C@H](N(Cc2cc(C(F)(F)F)cc(C(F)(F)F)c2)c2ncc(-c3cnn(C)c3)cn2)CN1C(=O)OCC1CCOCC1` [Example 7-6, (2R,4S)-4-{(3,5-Bis-trifluoromethyl-benzyl)-[5-(1-methyl-1H-pyrazol-4-yl)-pyrimidin-2-yl]-amino}-2-ethyl-pyrrolidine-1-carboxylic acid tetrahydro-pyran-4-ylmethyl ester] has an IC50 of 46 nM.

For `CCC(CC)OC(=O)N1C[C@@H](N(Cc2cc(C(F)(F)F)cc(C(F)(F)F)c2)c2ncc(-c3cnn(C)c3)cn2)C[C@H]1CC` [Example 9-1, (2R,4S)-4-{(3,5-Bis-trifluoromethyl-benzyl)-[5-(1-methyl-1H-pyrazol-4-yl)-pyrimidin-2-yl]-amino}-2-ethyl-pyrrolidine-1-carboxylic acid 1-ethyl-propyl ester], the IC50 was 41 nM.

`CC[C@@H]1C[C@H](N(Cc2cc(C(F)(F)F)cc(C(F)(F)F)c2)c2ncc(-c3cnn(C)c3)cn2)CN1C(=O)OCC(F)(F)F` [Example 9-2, (2R,4S)-4-{(3,5-Bis-trifluoromethyl-benzyl)-[5-(1-methyl-1H-pyrazol-4-yl)-pyrimidin-2-yl]-amino}-2-ethyl-pyrrolidine-1-carboxylic acid 2,2,2-trifluoro-ethyl ester] showed an IC50 of 59 nM.

`CC[C@@H]1C[C@H](N(Cc2cc(C(F)(F)F)cc(C(F)(F)F)c2)c2ncc(-c3cnn(C)c3)cn2)CN1C(=O)OC1CCCC1` [Example 9-3, (2R,4S)-4-{(3,5-Bis-trifluoromethyl-benzyl)-[5-(1-methyl-1H-pyrazol-4-yl)-pyrimidin-2-yl]-amino}-2-ethyl-pyrrolidine-1-carboxylic acid cyclopentyl ester] gave an IC50 of 70 nM.

Work on `CC[C@@H]1C[C@H](N(Cc2cc(C(F)(F)F)cc(C(F)(F)F)c2)c2ncc(-c3cnn(C)c3)cn2)CN1C(=O)O[C@H](C)CC` [Example 9-4, (2R,4S)-4-{(3,5-Bis-trifluoromethyl-benzyl)-[5-(1-methyl-1H-pyrazol-4-yl)-pyrimidin-2-yl]-amino}-2-ethyl-pyrrolidine-1-carboxylic acid (R)-sec-butyl ester] yielded an IC50 of 21 nM.

Work on `CC[C@@H]1C[C@H](N(Cc2cc(C(F)(F)F)cc(C(F)(F)F)c2)c2ncc(-c3cnn(C)c3)cn2)CN1C(=O)O[C@@H](C)CC` [Example 9-5, (2R,4S)-4-{(3,5-Bis-trifluoromethyl-benzyl)-[5-(1-methyl-1H-pyrazol-4-yl)-pyrimidin-2-yl]-amino}-2-ethyl-pyrrolidine-1-carboxylic acid (S)-sec-butyl ester] yielded an IC50 of 54 nM.

In the case of `CC[C@@H]1C[C@H](N(Cc2cc(C(F)(F)F)cc(C(F)(F)F)c2)c2ncc(-c3cnn(C)c3)cn2)CN1C(=O)OCC1(CC)COC1` [Example 9-6, (2R,4S)-4-{(3,5-Bis-trifluoromethyl-benzyl)-[5-(1-methyl-1H-pyrazol-4-yl)-pyrimidin-2-yl]-amino}-2-ethyl-pyrrolidine-1-carboxylic acid 3-ethyl-oxetan-3-ylmethyl ester], the IC50 is reported as 70 nM.

Compound `CC[C@@H]1C[C@H](N(Cc2cc(C(F)(F)F)cc(C(F)(F)F)c2)c2ncc(N3CC[C@H](O)C3)cn2)CN1C(=O)OC(C)C` [Example 11, (2R,4S)-4-{(3,5-Bis-trifluoromethyl-benzyl)-[5-((S)-3-hydroxy-pyrrolidin-1-yl)-pyrimidin-2-yl]-amino}-2-ethyl-pyrrolidine-1-carboxylic acid isopropyl ester] has an IC50 of 72 nM.

`CC[C@@H]1C[C@H](N(Cc2cc(C(F)(F)F)cc(C(F)(F)F)c2)c2ncc(-c3cn[nH]c3)cn2)CN1C(=O)OC(C)C` [Example 14, (2R,4S)-4-{(3,5-Bis-trifluoromethyl-benzyl)-[5-(1H-pyrazol-4-yl)-pyrimidin-2-yl]-amino}-2-ethyl-pyrrolidine-1-carboxylic acid isopropyl ester] gave an IC50 of 34 nM.

Work on `CC[C@@H]1C[C@H](N(Cc2cc(C(F)(F)F)cc(C(F)(F)F)c2)c2ncc(-c3cnn(C)c3)cn2)CN1C(=O)N1CCCC1` [Example 16, ((2R,4S)-4-{(3,5-Bis-trifluoromethyl-benzyl)-[5-(1-methyl-1H-pyrazol-4-yl)-pyrimidin-2-yl]-amino}-2-ethyl-pyrrolidin-1-yl)-pyrrolidin-1-yl-methanone] yielded an IC50 of 39 nM.

Work on `CC[C@@H]1C[C@H](N(Cc2cc(C(F)(F)F)cc(C(F)(F)F)c2)c2ncc(-c3cnn(C)c3)cn2)CN1C(=O)N1CCCCC1` [Example 16-2, ((2R,4S)-4-{(3,5-Bis-trifluoromethyl-benzyl)-[5-(1-methyl-1H-pyrazol-4-yl)-pyrimidin-2-yl]-amino}-2-ethyl-pyrrolidin-1-yl)-piperidin-1-yl-methanone] yielded an IC50 of 25 nM.

For `CC[C@@H]1C[C@H](N(Cc2cc(C(F)(F)F)cc(C(F)(F)F)c2)c2ncc(-c3cnn(C)c3)cn2)CN1C(=O)N1CCOCC1` [Example 17, ((2R,4S)-4-{(3,5-Bis-trifluoromethyl-benzyl)-[5-(1-methyl-1H-pyrazol-4-yl)-pyrimidin-2-yl]-amino}-2-ethyl-pyrrolidin-1-yl)-morpholin-4-yl-methanone], the IC50 was 32 nM.

Compound `CC[C@@H]1C[C@H](N(Cc2cc(C(F)(F)F)cc(C(F)(F)F)c2)c2ncc(-c3cnn(C)c3)cn2)CN1C(=O)N(C)C` [Example 18, (2R,4S)-4-{(3,5-Bis-trifluoromethyl-benzyl)-[5-(1-methyl-1H-pyrazol-4-yl)-pyrimidin-2-yl]-amino}-2-ethyl-pyrrolidine-1-carboxylic acid dimethylamide] has an IC50 of 63 nM.

`CC[C@@H]1C[C@H](N(Cc2cc(C(F)(F)F)cc(C(F)(F)F)c2)c2ncc(N3CC[C@H](O)C3)cn2)CN1c1nc(N2CCC(O)CC2)ncc1Cl` [Example 23-6] was tested, and the IC50 was 110 nM.

`CC[C@@H]1C[C@H](N(Cc2cc(C(F)(F)F)cc(C(F)(F)F)c2)c2ncc(-c3cnn(C)c3)cn2)CN1c1nc(N2CCC(O)CC2)ncc1Cl` [Example 23-10] was tested, and the IC50 was 30 nM.
